By EC50 is commonly meant the concentration giving half of the maximal effect.

recombinant human S1P1 receptor, sequence (P21453 whole entry): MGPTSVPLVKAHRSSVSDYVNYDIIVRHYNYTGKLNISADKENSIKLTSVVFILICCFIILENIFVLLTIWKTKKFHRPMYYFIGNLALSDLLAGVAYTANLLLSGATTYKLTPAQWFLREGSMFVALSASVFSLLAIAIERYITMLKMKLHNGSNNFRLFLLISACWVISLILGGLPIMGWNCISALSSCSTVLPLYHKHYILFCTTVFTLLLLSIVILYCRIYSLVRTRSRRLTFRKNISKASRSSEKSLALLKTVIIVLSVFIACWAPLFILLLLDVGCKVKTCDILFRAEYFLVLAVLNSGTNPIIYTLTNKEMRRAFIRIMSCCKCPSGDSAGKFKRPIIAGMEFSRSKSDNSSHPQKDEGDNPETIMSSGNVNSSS

In one assay the target is recombinant human S1P1 receptor (Homo sapiens, UniProt P21453). Put plainly: GTPγS assay to determine EC50 values. The conditions noted are these: 35S-GTPγS binding, membrane preparations of CHO cells expressing recombinant human S1P1 receptor, pH 7.4. The assay is classed as biochemical. The protocol:
GTPγS binding assays are performed in 96 well microtiter plates (Nunc, 442587) in a final volume of 200 μl, using membrane preparations of CHO cells expressing recombinant human S1P1 receptor. Assay conditions are 20 mM Hepes (Fluka, 54461), 100 mM NaCl (Fluka, 71378), 5 mM MgCl2 (Fluka, 63064), 0.1% BSA (Calbiochem, 126609), 1 μM GDP (Sigma, G-7127), 2.5% DMSO (Fluka, 41644), 50 pM ^35S-GTPγS (Amersham Biosciences, SJ1320). The pH is 7.4. Test compounds are dissolved and diluted in 100% DMSO and pre-incubated at room temperature for 30 min in 150 μl of the above assay buffer, in the absence of ^35S-GTPγS. After addition of 50 μl of ^35S-GTPγS, the assay is incubated for 1 h at rt. The assay is terminated by transfer of the reaction mixture to a Multiscreen plate (Millipore, MAHFC1H60) using a cell harvester from Packard Biosciences, and the plates are washed with ice-cold 10 mM Na2HPO4/NaH2PO4 (70%/30%), dried, sealed at the bottom and, after addition of 25 μl MicroScint20 (Packard Biosciences, order #6013621), sealed on the top. Membrane-bound ^35S-GTPγS is measured with a TopCount from Packard Biosciences.
EC50 is the concentration of agonist inducing 50% of the maximal specific ^35S-GTPγS binding. Specific binding is determined by subtracting non-specific binding from maximal binding. Maximal binding is the amount of cpm bound to the
Multiscreen plate in the presence of 10 μM of S1P. Non-specific binding is the amount of binding in the absence of an agonist in the assay.
Background: GTPγS resists hydrolysis and so accumulates on activated G proteins.
Turning to `Cc1cc(-c2noc(-c3ccc(CC(C)C)s3)n2)cc(C)c1OCC(O)CNC(=O)CO` (stereo not drawn) [Example 16], the EC50 came to 2.6 nM.

Take `CCCc1ccc(-c2nc(-c3cc(C)c(OC[C@H](O)CNC(=O)CO)c(C)c3)no2)s1` [Example 17, (2R)—N-(3-{2,6-Dimethyl-4-[5-(5-propyl-thiophen-2-yl)-[1,2,4]oxadiazol-3-yl]-phenoxy}-2-hydroxy-propyl)-2-hydroxy-acetamide]: the EC50 was 0.6 nM. The same measure, in the same setting: then `Cc1cc(-c2nnc(-c3ccc(CC(C)C)s3)o2)cc(C)c1OCC(O)CNC(=O)CO` (stereo not drawn) [Example 22, 2-hydroxy-N-(2-hydroxy-3-{4-[5-(5-isobutyl-thiophen-2-yl)-[1,3,4]oxadiazol-2-yl]-2,6-dimethyl-phenoxy}-propyl)-acetamide], with 2.8 nM; and `CCCc1ccc(-c2nc(-c3cc(C)c(OC[C@@H](O)CNC(=O)CO)c(CC)c3)no2)s1` [Example 28, (2S)—N-(3-{2-Ethyl-6-methyl-4-[5-(5-propyl-thiophen-2-yl)-[1,2,4]oxadiazol-3-yl]-phenoxy}-2-hydroxy-propyl)-2-hydroxy-acetamide], with 2.4 nM. For the molecule `Cc1cc(-c2nnc(-c3ccc(CC(C)C)s3)o2)cc(C)c1OC[C@@H](O)CNC(=O)CO` [Example 31, 2-hydroxy-N-((2S)-2-hydroxy-3-{4-[5-(5-isobutyl-thiophen-2-yl)-[1,3,4]oxadiazol-2-yl]-2,6-dimethyl-phenoxy}-propyl)-acetamide], the EC50 was 3.3 nM.

As for `CCc1cc(-c2nnc(-c3cc(C)c(CC(C)C)s3)o2)cc(C)c1OC[C@@H](O)CNC(=O)CO` [Example 42, N-((2S)-3-{2-Ethyl-4-[5-(5-isobutyl-4-methyl-thiophen-2-yl)-[1,3,4]oxadiazol-2-yl]-6-methyl-phenoxy}-2-hydroxy-propyl)-2-hydroxy-acetamide], the EC50 was 0.6 nM.

The test system of another assay is circulating lymphocytes. Put plainly: Assessment of in vivo efficacy: circulating lymphocytes after oral administration. The conditions noted are these: 6 h after oral administration of 10 mg/kg to normotensive male Wistar rats, as compared to vehicle group; mean±SEM. As for the experimental part:
The efficacy of the compounds of Formula (I) is assessed by measuring the circulating lymphocytes after oral administration of 3 to 30 mg/kg of a compound of Formula (I) to normotensive male Wistar rats. The animals are housed in climate-controlled conditions with a 12 h-light/dark cycle, and have free access to normal rat chow and drinking water. Blood is collected before and 3, 6 and 24 h after drug administration. Full blood is subjected to hematology using Advia Hematology system (Bayer Diagnostics, Zürich, Switzerland).
All data are presented as mean±SEM. Statistical analyses are performed by analysis of variance (ANOVA) using Statistica (StatSoft) and the Student-Newman-Keuls procedure for multiple comparisons. The null hypothesis is rejected when p<0.05.
Turning to `CCCc1ccc(-c2nc(-c3cc(C)c(OC[C@H](O)CNC(=O)CO)c(C)c3)no2)s1` [Example 17, (2R)—N-(3-{2,6-Dimethyl-4-[5-(5-propyl-thiophen-2-yl)-[1,2,4]oxadiazol-3-yl]-phenoxy}-2-hydroxy-propyl)-2-hydroxy-acetamide], the Lymphocyte counts is listed as −59. ± 4%. On the same count and under the same terms, then `CCc1cc(-c2nnc(-c3ccc(CC(C)C)s3)o2)cc(C)c1OC[C@@H](O)CNC(=O)CO` [Example 37, N-((2S)-3-{2-Ethyl-6-methyl-4-[5-(5-isobutyl-thiophen-2-yl)-[1,3,4]oxadiazol-2-yl]-phenoxy}-2-hydroxy-propyl)-2-hydroxy-acetamide], with −67 ± 3%; and `CCc1cc(-c2nnc(-c3cc(C)c(CC(C)C)s3)o2)cc(C)c1OC[C@@H](O)CO` [Example 40, (2S)-3-{2-Ethyl-4-[5-(5-isobutyl-4-methyl-thiophen-2-yl)-[1,3,4]oxadiazol-2-yl]-6-methyl-phenoxy}-propane-1,2-diol], with −58 ± 3%.

(Values after patent publication US8133910B2, “Thiophene derivatives as S1P1/EDGE1 receptor agonists” (Actelion Pharmaceuticals Ltd., priority 2006, dated 2012).)
